Measured values reported in ChEMBL document CHEMBL1772971, “Novel 18F-labeled benzofuran derivatives with improved properties for positron emission tomography (PET) imaging of β-amyloid plaques in Alzheimer's brains” (J Med Chem, 2011).
Active and inactive are the calls of the source. The rule behind the calls is not given here.

Key:
[1] = target: Amyloid-beta precursor protein (Homo sapiens) (UniProt P05067); experiment: Binding affinity to beta amyloid plaques in human Alzheimer's disease brain at 444 kBq/50 uL after 1 hr by autoradiography; settings: tested as the 18F-labelled form
[2] = Displacement of [125I]IMPY from amyloid beta (1 to 42) after 3 hrs by gamma counting
[3] = tested on: Lung; experiment: Biodistribution in ddY mouse lung at 185 to 370 kBq, iv after 60 mins by gamma counting; assay type: ADME, organism-based; settings: in vivo, 1 h
[4] = tested on: Blood; experiment: Biodistribution in ddY mouse blood at 185 to 370 kBq, iv after 60 mins by gamma counting; assay type: ADME, organism-based; settings: in vivo, 1 h
[5] = tested on: Lung; experiment: Biodistribution in ddY mouse lung at 185 to 370 kBq, iv after 2 mins by gamma counting; assay type: ADME, organism-based; settings: in vivo
[6] = tested on: Liver; experiment: Biodistribution in ddY mouse liver at 185 to 370 kBq, iv after 2 mins by gamma counting; assay type: ADME, organism-based; settings: in vivo
[7] = tested on: Stomach; experiment: Biodistribution in ddY mouse stomach assessed per organ at 185 to 370 kBq, iv after 30 mins by gamma counting; assay type: ADME, organism-based; settings: in vivo, 0.5 h
[8] = tested on: Liver; experiment: Biodistribution in ddY mouse liver at 185 to 370 kBq, iv after 30 mins by gamma counting; assay type: ADME, organism-based; settings: in vivo, 0.5 h
[9] = tested on: Brain; experiment: Biodistribution in ddY mouse brain at 185 to 370 kBq, iv after 10 mins by gamma counting; assay type: ADME, organism-based; settings: in vivo
[10] = tested on: Pancreas; experiment: Biodistribution in ddY mouse pancreas at 185 to 370 kBq, iv after 30 mins by gamma counting; assay type: ADME, organism-based; settings: in vivo, 0.5 h
[11] = tested on: Spleen; experiment: Biodistribution in ddY mouse spleen at 185 to 370 kBq, iv after 60 mins by gamma counting; assay type: ADME, organism-based; settings: in vivo, 1 h
[12] = tested on: Kidney; experiment: Biodistribution in ddY mouse kidney at 185 to 370 kBq, iv after 2 mins by gamma counting; assay type: ADME, organism-based; settings: in vivo
[13] = tested on: Intestine; experiment: Biodistribution in ddY mouse intestine at 185 to 370 kBq, iv after 30 mins by gamma counting; assay type: ADME, organism-based; settings: in vivo, 0.5 h
[14] = tested on: Kidney; experiment: Biodistribution in ddY mouse kidney at 185 to 370 kBq, iv after 30 mins by gamma counting; assay type: ADME, organism-based; settings: in vivo, 0.5 h
[15] = tested on: Pancreas; experiment: Biodistribution in ddY mouse pancreas at 185 to 370 kBq, iv after 10 mins by gamma counting; assay type: ADME, organism-based; settings: in vivo
[16] = tested on: Heart; experiment: Biodistribution in ddY mouse […] at 185 to 370 kBq, iv after 60 mins by gamma counting; assay type: ADME, organism-based; settings: in vivo, 1 h
[17] = tested on: Spleen; experiment: Biodistribution in ddY mouse spleen at 185 to 370 kBq, iv after 2 mins by gamma counting; assay type: ADME, organism-based; settings: in vivo
[18] = tested on: Bone; experiment: Biodistribution in ddY mouse bone at 185 to 370 kBq, iv after 2 mins by gamma counting; assay type: ADME, organism-based, Bone element; settings: in vivo
[19] = tested on: Spleen; experiment: Biodistribution in ddY mouse spleen at 185 to 370 kBq, iv after 10 mins by gamma counting; assay type: ADME, organism-based; settings: in vivo
[20] = tested on: Brain; experiment: Ratio of drug level in brain after 2 mins to brain after 60 mins in ddY mouse […] at 185 to 370 kBq, iv; assay type: ADME, organism-based; settings: in vivo
[21] = tested on: Liver; experiment: Biodistribution in ddY mouse liver at 185 to 370 kBq, iv after 10 mins by gamma counting; assay type: ADME, organism-based; settings: in vivo
[22] = tested on: Heart; experiment: Biodistribution in ddY mouse […] at 185 to 370 kBq, iv after 10 mins by gamma counting; assay type: ADME, organism-based; settings: in vivo
[23] = tested on: Pancreas; experiment: Biodistribution in ddY mouse pancreas at 185 to 370 kBq, iv after 60 mins by gamma counting; assay type: ADME, organism-based; settings: in vivo, 1 h
[24] = tested on: Brain; experiment: Biodistribution in Tg2576 transgenic mouse brain at 11.1 MBq, iv after 30 mins by autoradiography; assay type: ADME, organism-based; settings: in vivo, 0.5 h
[25] = tested on: Spleen; experiment: Biodistribution in ddY mouse spleen at 185 to 370 kBq, iv after 30 mins by gamma counting; assay type: ADME, organism-based; settings: in vivo, 0.5 h
[26] = tested on: Brain; experiment: Biodistribution in wild type mouse brain at 11.1 MBq, iv after 30 mins by autoradiography; assay type: ADME, organism-based; settings: in vivo, 0.5 h
[27] = tested on: Stomach; experiment: Biodistribution in ddY mouse stomach assessed per organ at 185 to 370 kBq, iv after 60 mins by gamma counting; assay type: ADME, organism-based; settings: in vivo, 1 h
[28] = tested on: Brain; experiment: Biodistribution in ddY mouse brain at 185 to 370 kBq, iv after 60 mins by gamma counting; assay type: ADME, organism-based; settings: in vivo, 1 h
[29] = tested on: Heart; experiment: Biodistribution in ddY mouse […] at 185 to 370 kBq, iv after 30 mins by gamma counting; assay type: ADME, organism-based; settings: in vivo, 0.5 h
[30] = tested on: Stomach; experiment: Biodistribution in ddY mouse stomach assessed per organ at 185 to 370 kBq, iv after 10 mins by gamma counting; assay type: ADME, organism-based; settings: in vivo
[31] = tested on: Intestine; experiment: Biodistribution in ddY mouse intestine at 185 to 370 kBq, iv after 60 mins by gamma counting; assay type: ADME, organism-based; settings: in vivo, 1 h
[32] = tested on: Bone; experiment: Biodistribution in ddY mouse bone at 185 to 370 kBq, iv after 10 mins by gamma counting; assay type: ADME, organism-based, Bone element; settings: in vivo
[33] = tested on: Intestine; experiment: Biodistribution in ddY mouse intestine at 185 to 370 kBq, iv after 10 mins by gamma counting; assay type: ADME, organism-based; settings: in vivo
[34] = tested on: Liver; experiment: Biodistribution in ddY mouse liver at 185 to 370 kBq, iv after 60 mins by gamma counting; assay type: ADME, organism-based; settings: in vivo, 1 h
[35] = tested on: Brain; experiment: Biodistribution in ddY mouse brain at 185 to 370 kBq, iv after 30 mins by gamma counting; assay type: ADME, organism-based; settings: in vivo, 0.5 h
[36] = tested on: Pancreas; experiment: Biodistribution in ddY mouse pancreas at 185 to 370 kBq, iv after 2 mins by gamma counting; assay type: ADME, organism-based; settings: in vivo
[37] = tested on: Lung; experiment: Biodistribution in ddY mouse lung at 185 to 370 kBq, iv after 10 mins by gamma counting; assay type: ADME, organism-based; settings: in vivo
[38] = tested on: Kidney; experiment: Biodistribution in ddY mouse kidney at 185 to 370 kBq, iv after 60 mins by gamma counting; assay type: ADME, organism-based; settings: in vivo, 1 h
[39] = tested on: Brain; experiment: Biodistribution in ddY mouse brain at 185 to 370 kBq, iv after 2 mins by gamma counting; assay type: ADME, organism-based; settings: in vivo
[40] = tested on: Lung; experiment: Biodistribution in ddY mouse lung at 185 to 370 kBq, iv after 30 mins by gamma counting; assay type: ADME, organism-based; settings: in vivo, 0.5 h
[41] = tested on: Intestine; experiment: Biodistribution in ddY mouse intestine at 185 to 370 kBq, iv after 2 mins by gamma counting; assay type: ADME, organism-based; settings: in vivo
[42] = tested on: Blood; experiment: Biodistribution in ddY mouse blood at 185 to 370 kBq, iv after 30 mins by gamma counting; assay type: ADME, organism-based; settings: in vivo, 0.5 h
[43] = tested on: Kidney; experiment: Biodistribution in ddY mouse kidney at 185 to 370 kBq, iv after 10 mins by gamma counting; assay type: ADME, organism-based; settings: in vivo
[44] = tested on: Heart; experiment: Biodistribution in ddY mouse […] at 185 to 370 kBq, iv after 2 mins by gamma counting; assay type: ADME, organism-based; settings: in vivo
[45] = tested on: Bone; experiment: Biodistribution in ddY mouse bone at 185 to 370 kBq, iv after 30 mins by gamma counting; assay type: ADME, organism-based, Bone element; settings: in vivo, 0.5 h
[46] = tested on: Blood; experiment: Biodistribution in ddY mouse blood at 185 to 370 kBq, iv after 10 mins by gamma counting; assay type: ADME, organism-based; settings: in vivo
[47] = tested on: Bone; experiment: Biodistribution in ddY mouse bone at 185 to 370 kBq, iv after 60 mins by gamma counting; assay type: ADME, organism-based, Bone element; settings: in vivo, 1 h
[48] = tested on: Blood; experiment: Biodistribution in ddY mouse blood at 185 to 370 kBq, iv after 2 mins by gamma counting; assay type: ADME, organism-based; settings: in vivo
[49] = tested on: Stomach; experiment: Biodistribution in ddY mouse stomach assessed per organ at 185 to 370 kBq, iv after 2 mins by gamma counting; assay type: ADME, organism-based; settings: in vivo

Sequence of Amyloid-beta precursor protein (Homo sapiens) (P05067 whole entry): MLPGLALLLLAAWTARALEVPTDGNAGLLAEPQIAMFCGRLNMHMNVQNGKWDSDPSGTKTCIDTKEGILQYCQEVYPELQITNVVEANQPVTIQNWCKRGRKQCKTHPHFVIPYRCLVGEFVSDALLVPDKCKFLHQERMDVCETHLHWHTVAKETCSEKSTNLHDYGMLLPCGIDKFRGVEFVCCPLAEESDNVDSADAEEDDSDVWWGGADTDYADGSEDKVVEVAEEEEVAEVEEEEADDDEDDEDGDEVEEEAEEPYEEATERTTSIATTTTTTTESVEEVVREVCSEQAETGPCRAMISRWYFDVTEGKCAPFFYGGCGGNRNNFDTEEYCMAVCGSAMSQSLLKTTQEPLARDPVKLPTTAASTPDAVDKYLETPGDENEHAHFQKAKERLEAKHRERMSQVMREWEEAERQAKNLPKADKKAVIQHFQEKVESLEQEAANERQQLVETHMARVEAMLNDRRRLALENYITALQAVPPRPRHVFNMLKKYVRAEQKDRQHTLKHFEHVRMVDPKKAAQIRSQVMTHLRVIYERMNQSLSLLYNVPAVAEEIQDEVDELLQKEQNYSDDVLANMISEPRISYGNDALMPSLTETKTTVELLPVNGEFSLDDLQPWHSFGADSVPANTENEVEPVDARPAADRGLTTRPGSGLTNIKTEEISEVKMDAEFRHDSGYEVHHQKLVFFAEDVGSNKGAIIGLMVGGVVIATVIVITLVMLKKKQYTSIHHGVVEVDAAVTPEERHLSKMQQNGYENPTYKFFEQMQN

## CNc1ccc(-c2cc3cc(OCCOCCOCCF)ccc3o2)cn1
[1]
  Activity: Active
[2]
  Ki: 2.41 nM

## CN(C)c1ccc(-c2cc3cc(OCCOCCOCCF)ccc3o2)cn1
[2]
  Ki: 0.95 nM

## CNc1ccc(-c2cc3cc(OCCOCCOCC[18F])ccc3o2)cn1
[3]
  Drug uptake: 2.88 % ID/g
[4]
  Drug uptake: 2.42 % ID/g
[5]
  Drug uptake: 5.68 % ID/g
[6]
  Drug uptake: 16.8 % ID/g
[7]
  Drug uptake: 18.8 %ID
[8]
  Drug uptake: 19.2 % ID/g
[9]
  Drug uptake: 4.86 % ID/g
[10]
  Drug uptake: 4.91 % ID/g
[11]
  Drug uptake: 2.24 % ID/g
[12]
  Drug uptake: 11.9 % ID/g
[13]
  Drug uptake: 24.1 % ID/g
[14]
  Drug uptake: 7.83 % ID/g
[15]
  Drug uptake: 2.68 % ID/g
[16]
  Drug uptake: 2.6 % ID/g
[17]
  Drug uptake: 2.91 % ID/g
[18]
  Drug uptake: 2.65 % ID/g
[19]
  Drug uptake: 2.15 % ID/g
[20]
  Ratio: 2.34
[21]
  Drug uptake: 17.5 % ID/g
[22]
  Drug uptake: 2.51 % ID/g
[23]
  Drug uptake: 2.55 % ID/g
[24]
  Drug uptake: Active
[25]
  Drug uptake: 3.14 % ID/g
[26]
  Drug uptake: Not Active
[27]
  Drug uptake: 22.5 %ID
[28]
  Drug uptake: 3.15 % ID/g
[29]
  Drug uptake: 3.59 % ID/g
[30]
  Drug uptake: 7.55 %ID
[31]
  Drug uptake: 30.9 % ID/g
[32]
  Drug uptake: 1.63 % ID/g
[33]
  Drug uptake: 8.39 % ID/g
[34]
  Drug uptake: 8.71 % ID/g
[35]
  Drug uptake: 4.03 % ID/g
[36]
  Drug uptake: 5.14 % ID/g
[37]
  Drug uptake: 3.12 % ID/g
[38]
  Drug uptake: 3.7 % ID/g
[39]
  Drug uptake: 7.38 % ID/g
[40]
  Drug uptake: 4.34 % ID/g
[41]
  Drug uptake: 4.24 % ID/g
[42]
  Drug uptake: 2.66 % ID/g
[43]
  Drug uptake: 6.22 % ID/g
[44]
  Drug uptake: 5.19 % ID/g
[45]
  Drug uptake: 1.79 % ID/g
[46]
  Drug uptake: 3.02 % ID/g
[47]
  Drug uptake: 1.72 % ID/g
[48]
  Drug uptake: 4.96 % ID/g
[49]
  Drug uptake: 3.73 %ID

## CNc1ccc(/C=C/c2ccc(OCCOCCOCC[18F])cc2)cc1 [FLORBETABEN F18]
[20]
  Ratio: 4.8

## CN(C)c1ccc(-c2cc3cc(OCCOCCOCC[18F])ccc3o2)cc1
[4]
  Drug uptake: 3.41 % ID/g
[9]
  Drug uptake: 5.66 % ID/g
[18]
  Drug uptake: 1.19 % ID/g
[20]
  Ratio: 1.02
[28]
  Drug uptake: 2.8 % ID/g
[32]
  Drug uptake: 1.76 % ID/g
[35]
  Drug uptake: 3.14 % ID/g
[39]
  Drug uptake: 2.88 % ID/g
[42]
  Drug uptake: 2.68 % ID/g
[45]
  Drug uptake: 3.63 % ID/g
[46]
  Drug uptake: 2.48 % ID/g
[47]
  Drug uptake: 2.74 % ID/g
[48]
  Drug uptake: 1.64 % ID/g
